One test concerns the target T1, IDO1 (Homo sapiens, UniProt P14902).
T1 construct: His tag (N); made in house; host or cells: E. coli
The test is described as follows: IDO enzymatic assay. The format is biochemical. The settings on record: geometric mean; read-out: IDO1 GMean: IC50 (μM) (Biochemical Assay). In short, it runs like this:
(§1)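 Kynurenine formed after TCA hydrolysis (30 min, 50 °C) was quantified relative to full-reaction and no-enzyme controls, and IC50s were fitted. TDO reactions used 1 nM enzyme with 350 μM Trp and 0.4 μM methylene blue for 70 min; IDO reactions used 6 nM enzyme, 10 μM Trp, 5 μM methylene blue for 20 min; both at pH 6.5, room temperature.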

The next test concerns the target T2, TDO (Homo sapiens, UniProt P48775).
T2 construct: His tag (N); made in house; host or cells: E. coli
In words: TDO enzymatic assay. Conditions: geometric mean; read-out: TDO GMean: IC50 (μM) (Biochemical Assay). In outline:
as §1

The target of test [1] is T3, IDO1-expressing HEK293 cell clones (Homo sapiens, UniProt P14902).
T3 construct: expressed in transfected cells; host or cells: HEK293
T3 sequence (P14902 whole entry): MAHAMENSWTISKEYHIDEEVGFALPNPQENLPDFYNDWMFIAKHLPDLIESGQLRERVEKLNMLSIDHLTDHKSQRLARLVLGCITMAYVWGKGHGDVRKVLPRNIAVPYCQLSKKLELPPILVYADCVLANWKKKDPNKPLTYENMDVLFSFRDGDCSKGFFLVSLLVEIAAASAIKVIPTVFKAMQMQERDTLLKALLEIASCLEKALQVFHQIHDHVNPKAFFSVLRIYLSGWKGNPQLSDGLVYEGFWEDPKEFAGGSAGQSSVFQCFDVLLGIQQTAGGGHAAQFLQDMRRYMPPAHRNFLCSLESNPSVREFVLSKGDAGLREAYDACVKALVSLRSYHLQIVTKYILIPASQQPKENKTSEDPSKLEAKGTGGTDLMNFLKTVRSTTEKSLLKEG
In words: Cell based kynurenine assay, IDO1-expressing HEK293 cell clones. The settings on record: HEK293 cells, 24 hours of incubation, geometric mean; read-out: HEK293 IDO1 Kynurenine GMean IC50 (μM) (Cellular Assay). In outline: (§2)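 IC50s come from nonlinear regression of % inhibition of kynurenine in culture supernatant after 24 hours of compound exposure. Controls were 0.2% DMSO-treated cells and media alone. Cells were stable human IDO1- or TDO-expressing HEK293 clones (CMV promoter), plated at 2.5×10^4 per well.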

In test [2] the target is T4, TDO-expressing HEK293 cell clones (Homo sapiens, UniProt P48775).
T4 construct: expressed in transfected cells; host or cells: HEK293
T4 sequence (P48775 whole entry): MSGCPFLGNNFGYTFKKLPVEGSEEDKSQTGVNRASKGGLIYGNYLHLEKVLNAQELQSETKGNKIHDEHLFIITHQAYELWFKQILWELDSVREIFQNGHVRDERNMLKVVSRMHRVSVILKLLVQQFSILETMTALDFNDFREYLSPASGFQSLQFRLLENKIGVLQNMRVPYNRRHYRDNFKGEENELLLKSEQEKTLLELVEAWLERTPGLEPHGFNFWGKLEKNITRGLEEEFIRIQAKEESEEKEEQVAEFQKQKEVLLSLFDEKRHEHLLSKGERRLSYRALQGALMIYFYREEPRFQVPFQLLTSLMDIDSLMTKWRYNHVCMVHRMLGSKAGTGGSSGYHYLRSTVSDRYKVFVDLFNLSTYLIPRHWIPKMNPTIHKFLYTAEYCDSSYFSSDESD
In words: Cell based kynurenine assay, TDO-expressing HEK293 cell clones. Conditions: HEK293 cells, 24 hours of incubation, geometric mean; read-out: HEK293 TDO Kynurenine GMean IC50 (μM) (Cellular Assay). In outline:
as §2

From patent US11149011B2, “Compounds and methods for IDO and TDO modulation, and indications therefor” (Plexxikon Inc., priority 2018, dated 2021) come the findings set out here.

Each structure is given as a SMILES string.

T1 sequence (P14902 whole entry): as the sequence (P14902 whole entry) above
T2 sequence (P48775 whole entry): as the sequence (P48775 whole entry) above

The term IC50 denotes the concentration that gives 50% inhibition. For `C[C@@H](N)C(=O)N1CCC(C(C)(C)[C@H](O)c2cc(Cl)cc3cn[nH]c23)CC1` [Compound P-0125, (R)-2-amino-1-(4-((S)-1-(5-chloro-1H-indazol-7-yl)-1-hydroxy-2-methylpropan-2-yl)piperidin-1-yl)propan-1-one], the IC50 (on IDO1; at TDO; in test [1]; in test [2]) was 0.0001 to 10 µM throughout.
As to `CC(C)(C1CCN(C(=O)NC2CCC(F)(F)CC2)CC1)C(O)c1cc(Cl)cc2[nH]ncc12` (stereo not drawn) [Compound P-0112, 4-(1-(6-chloro-1H-indazol-4-yl)-1-hydroxy-2-methylpropan-2-yl)-N-(4,4-difluorocyclohexyl)piperidine-1-carboxamide], the IC50 (at IDO1; at TDO; in test [1]; in test [2]) was 0.0001 to 10 µM in each case.
With `CC(C)(C1CCN(C(=O)C2(O)CC2)CC1)[C@H](O)c1cc(Cl)cc2cn[nH]c12` [Compound P-0133, (S)-(4-(1-(5-chloro-1H-indazol-7-yl)-1-hydroxy-2-methylpropan-2-yl)piperidin-1-yl)(1-hydroxycyclopropyl)methanone], the IC50 (at IDO1; on TDO; in test [1]; in test [2]) was 0.0001 to 10 µM throughout.
Regarding `CC(C)(C1CCN(C(=O)N[C@@H]2CCOC2)CC1)C(O)c1cc(Cl)cc2[nH]ncc12` (stereo partly drawn) [Compound P-0113, 4-(1-(6-chloro-1H-indazol-4-yl)-1-hydroxy-2-methylpropan-2-yl)-N-((R)-tetrahydrofuran-3-yl)piperidine-1-carboxamide], the IC50 (on IDO1; on TDO; in test [1]; in test [2]) was 0.0001 to 10 µM each time.
With `CC(C)(C1CCN(C(=O)NOCC2CC2)CC1)[C@H](O)c1cc(Cl)cc2cn[nH]c12` [Compound P-0600, (S)-4-(1-(5-chloro-1H-indazol-7-yl)-1-hydroxy-2-methylpropan-2-yl)-N-(cyclopropylmethoxy)piperidine-1-carboxamide], the IC50 (at IDO1; on TDO; in test [1]; in test [2]) was 0.0001 to 10 µM in each case.
As for `N#CCC(=O)N1CCC(C(F)(F)C(=O)c2c(F)c(Cl)cc3cn[nH]c23)CC1` [Compound P-0033, 3-(4-(2-(5-chloro-6-fluoro-1H-indazol-7-yl)-1,1-difluoro-2-oxoethyl)piperidin-1-yl)-3-oxopropanenitrile], the IC50 on IDO1 is 0.0001 to 10 µM; at TDO, 0.0001 to 10 µM; in test [1] it was 0.0001 to 10 µM; in test [2], > 10 µM.
As for `CCCC(=O)N1CCC(C(C)(C)C(O)c2cc(Cl)cc3[nH]ncc23)CC1` (stereo not drawn) [Compound P-0045, 1-(4-(1-(6-chloro-1H-indazol-4-yl)-1-hydroxy-2-methylpropan-2-yl)piperidin-1-yl)butan-1-one], the IC50 (on IDO1; at TDO; in test [1]; in test [2]) was 0.0001 to 10 µM each time.
Take `O=C(NCC1CC1)N1CCC(C(F)(F)C(=O)c2c(F)c(Cl)cc3cn[nH]c23)CC1` [Compound P-0036, 4-(2-(5-chloro-6-fluoro-1H-indazol-7-yl)-1,1-difluoro-2-oxoethyl)-N-(cyclopropylmethyl)piperidine-1-carboxamide]: the concentration for half-maximal inhibition (IC50) (at IDO1; at TDO; in test [1]; in test [2]) was 0.0001 to 10 µM each time.
Turning to `O=C(NCCC(F)(F)F)N1CCC(C(F)(F)C(=O)c2c(F)c(Cl)cc3cn[nH]c23)CC1` [Compound P-0039, 4-(2-(5-chloro-6-fluoro-1H-indazol-7-yl)-1,1-difluoro-2-oxoethyl)-N-(3,3,3-trifluoropropyl)piperidine-1-carboxamide], the IC50 (on IDO1; at TDO; in test [1]; in test [2]) was 0.0001 to 10 µM each time.
`CON(C)C(=O)N1CCC(C(C)(C)[C@H](O)c2cc(Cl)cc3cn[nH]c23)CC1` [Compound P-0130, (S)-4-(1-(5-chloro-1H-indazol-7-yl)-1-hydroxy-2-methylpropan-2-yl)-N-methoxy-N-methylpiperidine-1-carboxamide]: the IC50 (at IDO1; at TDO; in test [1]; in test [2]) was 0.0001 to 10 µM throughout.
As for `N#CC1CCN(c2cc(Cl)cc3cn[nH]c23)CC1` [Compound P-0097, 1-(5-chloro-1H-indazol-7-yl)piperidine-4-carbonitrile], the IC50 (at IDO1; on TDO; in test [1]; in test [2]) was 0.0001 to 10 µM throughout.
Turning to `C[C@H](O)C(=O)N1CCC(C(C)(C)[C@H](O)c2cc(Cl)cc3cn[nH]c23)CC1` [Compound P-0124, (S)-1-(4-((S)-1-(5-chloro-1H-indazol-7-yl)-1-hydroxy-2-methylpropan-2-yl)piperidin-1-yl)-2-hydroxypropan-1-one], the IC50 (on IDO1; at TDO; in test [1]; in test [2]) was 0.0001 to 10 µM throughout.
On to `CC(C)(C1CCN(C(=O)NCc2ccc(C#N)cc2)CC1)C(O)c1cc(Cl)cc2[nH]ncc12` (stereo not drawn) [Compound P-0118, 4-(1-(6-chloro-1H-indazol-4-yl)-1-hydroxy-2-methylpropan-2-yl)-N-(4-cyanobenzyl)piperidine-1-carboxamide], for which the IC50 (on IDO1; on TDO; in test [1]; in test [2]) was 0.0001 to 10 µM throughout.
As for `COCC(=O)N1CCC(C(F)(F)C(=O)c2c(F)c(Cl)cc3cn[nH]c23)CC1` [Compound P-0034, 1-(5-chloro-6-fluoro-1H-indazol-7-yl)-2,2-difluoro-2-(1-(2-methoxyacetyl)piperidin-4-yl)ethan-1-one], the IC50 (at IDO1; at TDO; in test [1]; in test [2]) was 0.0001 to 10 µM throughout.
Consider `CC(C)(C1CCN(C(=O)C2CC2)CC1)C(O)c1cc(Cl)cc2[nH]ncc12` (stereo not drawn) [Compound P-0046, (4-(1-(6-chloro-1H-indazol-4-yl)-1-hydroxy-2-methylpropan-2-yl)piperidin-1-yl)(cyclopropyl)methanone], for which the IC50 at IDO1 is 0.0001 to 10 µM; on TDO, 0.0001 to 10 µM; in test [1], > 10 µM; in test [2] it was 0.0001 to 10 µM.
Turning to `CC(C)(C1CCN(C(=O)NOCC(F)(F)F)CC1)[C@H](O)c1cc(Cl)cc2cn[nH]c12` [Compound P-0065, (S)-4-(1-(5-chloro-1H-indazol-7-yl)-1-hydroxy-2-methylpropan-2-yl)-N-(2,2,2-trifluoroethoxy)piperidine-1-carboxamide], the IC50 (at IDO1; at TDO; in test [1]; in test [2]) was 0.0001 to 10 µM throughout.
For the compound `CC(C)(C1CCN(C(=O)CN)CC1)[C@H](O)c1cc(Cl)cc2cn[nH]c12` [Compound P-0126, (S)-2-amino-1-(4-(1-(5-chloro-1H-indazol-7-yl)-1-hydroxy-2-methylpropan-2-yl)piperidin-1-yl)ethan-1-one], the IC50 (at IDO1; on TDO; in test [1]; in test [2]) was 0.0001 to 10 µM throughout.
As for `COCCCNC(=O)N1CCC(C(F)(F)C(=O)c2c(F)c(Cl)cc3cn[nH]c23)CC1` [Compound P-0037, 4-(2-(5-chloro-6-fluoro-1H-indazol-7-yl)-1,1-difluoro-2-oxoethyl)-N-(3-methoxypropyl)piperidine-1-carboxamide], the IC50 (at IDO1; on TDO; in test [1]; in test [2]) was 0.0001 to 10 µM throughout.
With `CC(C)(C1CCN(C(=O)NC[C@H]2CCCO2)CC1)C(O)c1cc(Cl)cc2[nH]ncc12` (stereo partly drawn) [Compound P-0115, 4-(1-(6-chloro-1H-indazol-4-yl)-1-hydroxy-2-methylpropan-2-yl)-N-(((R)-tetrahydrofuran-2-yl)methyl)piperidine-1-carboxamide], the IC50 (at IDO1; at TDO; in test [1]; in test [2]) was 0.0001 to 10 µM each time.
On to `C[C@H](N)C(=O)N1CCC(C(C)(C)[C@H](O)c2cc(Cl)cc3cn[nH]c23)CC1` [Compound P-0127, (S)-2-amino-1-(4-((S)-1-(5-chloro-1H-indazol-7-yl)-1-hydroxy-2-methylpropan-2-yl)piperidin-1-yl)propan-1-one], for which the IC50 (on IDO1; on TDO; in test [1]; in test [2]) was 0.0001 to 10 µM each time.
As to `CC(C)(C1CCN(C(=O)NCC(F)F)CC1)C(O)c1cc(Cl)cc2[nH]ncc12` (stereo not drawn) [Compound P-0091, 4-(1-(6-chloro-1H-indazol-4-yl)-1-hydroxy-2-methylpropan-2-yl)-N-(2,2-difluoroethyl)piperidine-1-carboxamide], the IC50 (at IDO1; on TDO; in test [1]; in test [2]) was 0.0001 to 10 µM in each case.
